In patent US9260418B2, “Pyranyl aryl methyl benzoquinolinone M1 receptor positive allosteric modulators” (Merck Sharp & Dohme Corp., priority 2009, dated 2016) one finds EC50 data, which are given here for 20 molecules.

SMILES strings stand for the structures.

This experiment concerns the target T1, acetylcholine muscarinic M1 receptor (Homo sapiens, UniProt P11229).
T1 construct: expressed in transfected cells; host or cells: CHOnfat cells (CHO), under Geneticin selection; b382 calls them CHOK1/hM1
T1 sequence (P11229 1-460): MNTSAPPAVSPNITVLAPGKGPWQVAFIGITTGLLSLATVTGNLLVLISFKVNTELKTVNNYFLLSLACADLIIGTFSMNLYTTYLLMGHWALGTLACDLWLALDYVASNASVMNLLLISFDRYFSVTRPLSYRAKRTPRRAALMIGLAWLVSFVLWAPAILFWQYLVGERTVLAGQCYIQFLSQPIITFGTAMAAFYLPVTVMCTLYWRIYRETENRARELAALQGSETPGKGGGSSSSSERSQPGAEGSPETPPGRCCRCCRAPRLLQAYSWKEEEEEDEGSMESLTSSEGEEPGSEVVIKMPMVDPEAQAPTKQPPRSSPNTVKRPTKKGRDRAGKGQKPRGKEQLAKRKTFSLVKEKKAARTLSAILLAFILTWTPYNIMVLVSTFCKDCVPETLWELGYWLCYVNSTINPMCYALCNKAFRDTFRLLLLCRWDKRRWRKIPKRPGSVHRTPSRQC
Put plainly: muscarinic FLIPR intracellular calcium assay, potentiation of EC20 acetylcholine in CHOnfat/hM1 cells. It counts as cell-based. The note with it: inflection point calculated from FLIPR values, 4 min preincubation, then EC20 acetylcholine (3 nM final), read-out: IP Value. How it is done:
The assay studies the effect of one or several concentrations of test compounds on basal or acetylcholine-stimulated Ca^2+ levels using FLIPR.
Compounds are prepared and subjected to a preincubation period of 4 min. Thereafter, a single EC20 concentration of acetylcholine is added to each well (3 nM final). The intracellular Ca^2+ level of each sample is measured and compared to an acetylcholine control to determine any modulatory activity.
Cells: CHOnfat/hM1, hM2, hM3 or hM4 cells are plated 24 hr before the assay at a density of 18,000 cells/well (100 μL) in a 384 well plate. CHOnfat/hM1 and CHOnfat/hM3 Growth Medium: 90% DMEM (Hi Glucose); 10% HI FBS; 2 mM L-glutamine; 0.1 mM NEAA; Pen-Strep; and 1 mg/ml Geneticin, are added. For M2Gqi5CHOnfat and M4Gqi5CHOnfat cells, an additional 600 ug/ml hygromycin is added.
Equipment: 384 well plate, 120 μL addition plate; 96-well Whatman 2 ml Uniplate Incubator, 37° C., 5% CO2; Skatron EMBLA-384 Plate Washer; Multimek Pipetting System; Genesis Freedom 200 System; Mosquito System; Temo Nanolitre Pipetting System; and FLIPR^384 Fluorometric Imaging Plate Reader System are used.
Buffers. Assay Buffer: Hanks Balanced Salt Solution, with 20 mM Hepes, 2.5 mM Probenecid (Sigma P-8761) first dissolved in 1 N NaOH, 1% Bovine Serum Albumin (Sigma A-9647). Dye Loading Buffer: Assay Buffer plus 1% Fetal Bovine Serum and Fluo-4AM/Pluronic Acid Mixture. 2 mM Fluo-4AM ester stock in DMSO (Molecular Probes F-14202) Concentration of 2 μM in buffer for a final concentration of 1 μM in Assay. 20% Pluronic Acid Solution stock, with concentration of 0.04% in Buffer, 0.02% in Assay.
65 μL of 2 mM Fluo-4AM are mixed with 130 μL of 20% Pluronic Acid. The resulting solution and 650 μL FBS is added to the assay buffer for a total volume of 65 mL. Positive Controls: 4-Br-A23187: 10 mM in DMSO; final concentration 10 μM. Acetylcholine: 10 mM in water, working stock at both 20 μM and 30 μM in assay buffer, final concentration of 10 μM. This is used to check the maximum stimulation of the CHOK1/hM1 cells. 20 μM (2×) acetylcholine is added in the preincubation part of the assay, and the 30 μM (3×) stock is added in the second part. (EC20)Acetylcholine: 10 mM in water, working stock of 9 nM (3×), and final concentration in assay is 3 nM. This is used after the preincubation with test compounds. Addition of the EC20 Acetylcholine to each well with a test compound will ascertain any modulator activity. 24 wells contain 3 nM Acetylcholine alone as a control.
Screening Plate: Compounds are titrated in 96-well plates (columns 2-11), 100% DMSO, started at a concentration of 15 mM (150× stock concentration), and 3-fold serial dilutions using Genesis Freedom200 System. Four 96-well plates are combined into a 384-well plate using Mosquito Nanolitre Pipetting System by transferring 1 μl of serial diluted compounds to each well, and 1 mM acetylcholine (100× stock concentration) were added as a control. Using Temo, 49 μl assay buffer is added to each well of the 384-well plate right before assay.
In a 96-well Whatman 2 ml Uniplate, 9 nM Acetylcholine (3×) is pipetted into wells corresponding to the screening compounds, and into control wells. The 30 μM acetylcholine control (3×) is added into control wells, and the 3× agonist plate is transferred into a 384 well plate.
Cells are washed three times with 100 μL of buffer, leaving 30 μL of buffer in each well. Using Multimek, 30 μL of Dye Loading Buffer is added into each well and incubated at 37° C., 5% CO2 for up to one hr.
After 60 min, the cells are washed three times with 100 μL of buffer, leaving 30 μL of buffer in each well. The cell plate, screening plate, and agonist addition plates are placed on the platform in the FLIPR and the door closed. A signal test to check background fluorescence and basal fluorescence signal is performed. Laser intensity is adjusted if necessary. […]

As to `CC(C)(O)c1ccc(Cc2cc3c(=O)n([C@H]4CCOC[C@@H]4O)cnc3c3ccccc23)cn1` [Example 11, 6-{[6-(1-Hydroxy-1-methylethyl)pyridine-3-yl]methyl}-3-[(3R,4S)-3-hydroxytetrahydro-2H-pyran-4-yl]benzo[h]quinazolin-4(3H)-one], the EC50 is 76 nM.
Take `O=c1c2cc(Cc3ccc(Cl)nc3)c3ccccc3c2ncn1[C@H]1CCNC[C@@H]1O` (racemic) [Example 35, rac-6-[(6-Chloropyridin-3-yl)methyl]-3-[(3R,4R)-3-hydroxypiperidin-4-yl]benzo[h]quinazolin-4(3)H-one]: the EC50 is 54 nM.
In the case of `CCOc1ccc(Cc2cc3c(=O)n([C@H]4CCOC[C@@H]4O)cnc3c3ccccc23)cn1` [Example 27, 6-[(6-Ethyoxypyridin-3-yl)methyl]-3-[(3R,4S)-3-hydroxytetrahydro-2H-pyran-4-yl]benzo[h]quinazolin-4(3H)-one], the EC50 is 27 nM.
For `Cc1ccc(Cc2cc3c(=O)n([C@H]4CCOC[C@@H]4O)cnc3c3ccccc23)cn1` [Example 3, 3-[(3R,4S)-3-Hydroxytetrahydro-2H-pyran-4-yl]-6-[(6-methylpyridin-3-yl)methyl]benzo[h]quinazolin-4(3H)-one], the EC50 was 15 nM.
In the case of `O=c1c2cc(Cc3ccc(Cl)nc3)c3ccccc3c2ncn1[C@H]1CCSC[C@@H]1O` [Example 33, 6-[(6-Chloropyridin-3-yl)methyl]-3-[(3R,4S)-3-hydroxytetrahydro-2H-thiopyran-4-yl]benzo[h]quinazolin-4(3H)-one], the EC50 is 10 nM.
Regarding `O=c1c2cc(Cc3ccc(-n4cccn4)nc3)c3ccccc3c2ncn1[C@H]1CCOC[C@@H]1O` [Example 5, 3-[(3R,4S)-3-Hydroxytetrahydro-2H-pyran-4-yl]-6-{[6-(1H-pyrazol-1-yl)pyridine-3-yl]methyl}benzo[h]quinazolin-4(3H)-one], the EC50 was 15 nM.
For `O=c1c2cc(Cc3ccc(Cl)nc3)c3ccccc3c2ncn1[C@H]1CCOC[C@@H]1O` [Example 1, 6-[(6-Chloropyridin-3-yl)methyl]-3-[(3R,4S)-3-hydroxytetrahydro-2H-pyran-4-yl]benzo[h]quinazolin-4(3H)-one] the value was 13 nM; for `O=c1c2cc(Cc3ccnc(F)c3)c3ccccc3c2ncn1[C@H]1CCOC[C@@H]1O` [Example 25, 6-[(2-Fluoropyridin-4-yl)methyl]-3-[(3R,4S)-3-hydroxytetrahydro-2H-pyran-4-yl]benzo[h]quinazolin-4(3H)-one], 15 nM; for `COc1cc(Cc2cc3c(=O)n([C@H]4CCOC[C@@H]4O)cnc3c3ccccc23)ccn1` [Example 26, 3-[(3R,4S)-3-Hydroxytetrahydro-2H-pyran-4-yl]-6-[(2-methoxypyridin-4-yl)methyl]benzo[h]quinazolin-4(3H)-one], 34 nM.
On to `O=c1c2cc(Cc3ccc(C(F)F)nc3)c3ccccc3c2ncn1[C@H]1CCOC[C@@H]1O` [Example 23, 6-{[6-(Difluoromethyl)pyridine-3-yl]methyl}-3-[(3R,4S)-3-hydroxytetrahydro-2H-pyran-4-yl]benzo[h]quinazolin-4(3H)-one], for which the EC50 is 14 nM.
As to `N#Cc1ccc(Cc2cc3c(=O)n([C@H]4CCOC[C@@H]4O)cnc3c3ccccc23)cn1` [Example 8, 5-({3-[(3R,4S)-3-Hydroxytetrahydro-2H-pyran-4-yl]-4-oxo-3,4-dihydrobenzo[h]quinazolin-6-yl}methyl)pyridine-2-carbonitrile], the EC50 is 31 nM.
Take `CSc1ccc(Cc2cc3c(=O)n([C@H]4CCOC[C@@H]4O)cnc3c3ccccc23)cn1` [Example 2, 3-[(3R,4S)-3-Hydroxytetrahydro-2H-pyran-4-yl]-6-{[(6-methylthio)pyridin-3-yl)methyl]benzo[h]quinazolin-4(3H)-one]: the EC50 is 14 nM.
For `Cn1cc(-c2ccc(Cc3cc4c(=O)n([C@H]5CCOC[C@@H]5O)cnc4c4ccccc34)cn2)cn1` [Example 4, 3-[(3R,4S)-3-Hydroxytetrahydro-2H-pyran-4-yl]-6-{[6-(1-methyl-1H-pyrazol-4-yl)pyridine-3-yl]methyl}benzo[h]quinazolin-4(3H)-one], the EC50 was 2.5 nM.
Regarding `CCc1ccc(Cc2cc3c(=O)n([C@H]4CCOC[C@@H]4O)cnc3c3ccccc23)cn1` [Example 9, 6-[(6-Ethylpyridin-3-yl)methyl]-3-[(3R,4S)-3-hydroxytetrahydro-2H-pyran-4-yl]benzo[h]quinazolin-4(3H)-one], the EC50 is 16 nM.
As for `COc1ccc(Cc2cc3c(=O)n([C@H]4CCOC[C@@H]4O)cnc3c3ccccc23)cn1` [Example 7, 3-[(3R,4S)-3-Hydroxytetrahydro-2H-pyran-4-yl]-6-[(6-methoxypyridin-3-yl)methyl]benzo[h]quinazolin-4(3H)-one], the EC50 was 16.8 nM.
`O=c1c2cc(Cc3ccc(CO)nc3)c3ccccc3c2ncn1[C@H]1CCOC[C@@H]1O` [Example 21, 6-{[6-(Hydroxymethyl)pyridine-3-yl]methyl}-[(3R,4S)-3-hydroxytetrahydro-2H-pyran-4-yl]benzo[h]quinazolin-4(3H)-one]: the EC50 was 28 nM.
As to `CS(=O)(=O)c1ccc(Cc2cc3c(=O)n([C@H]4CCOC[C@@H]4O)cnc3c3ccccc23)cn1` [Example 16, 3-[(3R,4S)-3-Hydroxytetrahydro-2H-pyran-4-yl]-6-{[6-(methylsulfonyl)pyridine-3-yl]methyl}benzo[h]quinazolin-4(3H)-one], the EC50 is 53 nM.
Turning to `O=c1c2cc(Cc3ccnc(Cl)c3)c3ccccc3c2ncn1[C@H]1CCOC[C@@H]1O` [Example 15, 6-[(2-Chloropyridin-4-yl)methyl]-3-[(3R,4S)-3-hydroxytetrahydro-2H-pyran-4-yl]benzo[h]quinazolin-4(3H)-one], the EC50 was 12 nM.
The value for `CCn1ccc2c(Cc3cc4c(=O)n([C@H]5CCOC[C@@H]5O)cnc4c4ccccc34)ccnc21` [Example 32, 6-[(1-Ethyl-1H-pyrrolo[2,3-b]pyrdin-4-yl)methyl]-3-[(3R,4S)-3-hydroxytetrahydro-2H-pyran-4-yl]benzo[h]quinazolin-4(3H)-one] was 32 nM.
For `O=c1c2cc(Cc3ccc(OC(F)F)nc3)c3ccccc3c2ncn1[C@H]1CCOC[C@@H]1O` [Example 29, 6-{[6-(Difluoromethoxy)pyridine-3-yl]methyl}-3-[(3R,4S)-3-hydroxytetrahydro-2H-pyran-4-yl]benzo[h]quinazolin-4(3H)-one] the value was 39 nM.
